The values that follow come from US7351731B2, “Azole derivatives and methods for making the same” (Board of Governors for Higher Education, State of Rhode …, priority 2005, dated 2008).

In brackets after ≈: the same amount, converted by molar mass.

One test concerns A. niger ATCC 16404. As to the kind of experiment: MIC microdilution susceptibility testing, A. niger in SDB. It is filed as cell-based, Aspergillus niger. As to conditions: SDB medium, 35-37° C., 24-48 h, average of three experiments; for MIC: Aspergillus niger, ATCC16404. As to the method: (§1) Microorganisnis. […] Stock cultures were kept on Sabouraud dextrose agar (SDA; Becton-Dickinson and Co., Sparks, Md.). Subcultures were prepared on SDA at 35-37° C. Suspension cultures were prepared by inoculation of single colonies in 7 ml of normal saline solution.
(§2) Test compounds were dissolved in DMSO (0.56 mg/ml) and stored at 0° C. Working dilutions were made in RPMI or SDB medium. […] The final maximum concentration of DMSO in the assays was 5% (v/v).
(§3) Microdilutions for control experiments with C. albicans, A. niger, and C. neoformans were the modified method of National Committee for Clinical Laboratory Standards (NCCLS) method as described by Galgiani and by the more recent NCCLS M27-A microdilution methods as described previously. Galgiani, J. N. Antimicrob. Agents Chemother. […] Reference method for broth dilution antifungal susceptibility testing for yeasts. Approval standard. […] 9; C. arballeira, N. M., et al. Arch. Pharm.-Pharm. […] Dilutions were prepared in 0.1 ml of RPMI or SDB; the inocula were either 10^4 C. albicans or C. neoformans cells or A. niger spores. The tubes were incubated for 24-48 h at 36±1° C., and turbidity was read visually.
(In general: Broth dilution looks for growth in wells or tubes with falling amounts of substance.)

The next test relates to C. neoformans ATCC 66031. The experiment in a line: MIC microdilution susceptibility testing, C. neoformans in SDB. The test is classed as cell-based, Cryptococcus neoformans. As to conditions: SDB medium, 35-37° C., 24-48 h, average of three experiments; for MIC: Cryptococcus neoformans, ATCC66031. As to the method: as §1, §2, §3
Test [1] deals with C. albicans ATCC 14053. As to the kind of experiment: MIC microdilution susceptibility testing, C. albicans in SDB. It is filed as cell-based, Candida albicans. To be noted: 24-48 h, average of three experiments; for MIC: Candida albicans, ATCC14053, pH 5.6, SDB medium pH 5.6, 35-37° C.; for MIC C. albicans ATCC 14053, SDB: SDB medium pH 5.6, 35-37° C. As for the experimental part:
as §1, §2, §3

For test [2], the system named is C. albicans ATCC 14053. The experiment in a line: MIC microdilution susceptibility testing, C. albicans in RPMI. It is filed as cell-based, Candida albicans. As to conditions: RPMI medium pH 6.9, 35-37° C., 24-48 h, average of three experiments; for MIC: Candida albicans, ATCC14053, read-out: MIC C. albicans ATCC 14053, RPMI. As to the method:
as §1, §2, §3

The term MIC denotes the least concentration at which growth counts as inhibited. Regarding `OCCCCCCCCCCCBr` [11-Bromoundecanol, reference compound], the MIC with A. niger ATCC 16404 stood at 24 µg/mL (≈ 95.5 µM); with C. neoformans ATCC 66031, 12 µg/mL (≈ 47.8 µM); in the test on C. albicans ATCC 14053 [1], 95 µg/mL (≈ 378 µM).

With `CCCCCCCCCCCO` [Compound 1-Undecanol, 1-Undecanol, reference compound], the MIC with A. niger ATCC 16404 came out at 87 µg/mL (≈ 505 µM); in the test with C. neoformans ATCC 66031 it was 28 µg/mL (≈ 162 µM); in the test on C. albicans ATCC 14053 [1] it was 87 µg/mL (≈ 505 µM).

As for `Fc1ccc(C(S)(Cn2cncn2)Cn2cncn2)c(F)c1` [SH], the MIC was above 3730 µg/mL in the test on A. niger ATCC 16404, 339 µg/mL (≈ 1050 µM) in the test with C. neoformans ATCC 66031 and 1860 µg/mL (≈ 5780 µM) in the test on C. albicans ATCC 14053 [1].

`Fc1ccc(C(Br)(Cn2cncn2)Cn2cncn2)c(F)c1` [Br]: the MIC in the test with A. niger ATCC 16404 is 701 µg/mL (≈ 1900 µM); in the test with C. neoformans ATCC 66031 it was 22 µg/mL (≈ 59.6 µM); in the test on C. albicans ATCC 14053 [2], 701 µg/mL (≈ 1900 µM); in the test with C. albicans ATCC 14053 [1], above 701 µg/mL.

Turning to `CCCCCCCCCCCCCCO` [Tetradecanol, reference compound], the values for the MIC in the test on A. niger ATCC 16404, against C. neoformans ATCC 66031 and against C. albicans ATCC 14053 [1] were 27 µg/mL (≈ 126 µM), 14 µg/mL (≈ 65.3 µM) and 1720 µg/mL (≈ 8020 µM), respectively.

For the molecule `CC(=O)O` [Acetic acid, reference compound], the MIC in the test with A. niger ATCC 16404, in the test on C. neoformans ATCC 66031, with C. albicans ATCC 14053 [2] and against C. albicans ATCC 14053 [1] was at least 220 µg/mL throughout.

Regarding `CS(=O)(=O)C(Cn1cncn1)(Cn1cncn1)c1ccc(F)cc1F` [Mesyl], the MIC in the test on A. niger ATCC 16404 worked out at 1290 µg/mL (≈ 3500 µM); in the test with C. neoformans ATCC 66031 it was 40 µg/mL (≈ 109 µM); in the test on C. albicans ATCC 14053 [2] it was 645 µg/mL (≈ 1750 µM); against C. albicans ATCC 14053 [1], 1290 µg/mL (≈ 3500 µM).

For `Fc1ccc(C(I)(Cn2cncn2)Cn2cncn2)c(F)c1` [I], the MIC in the test with A. niger ATCC 16404 was 749 µg/mL (≈ 1800 µM); in the test on C. neoformans ATCC 66031 it was 47 µg/mL (≈ 113 µM); with C. albicans ATCC 14053 [2], 749 µg/mL (≈ 1800 µM); against C. albicans ATCC 14053 [1], above 749 µg/mL.

On to `CCC(Br)C(=O)OC(Cn1cncn1)(Cn1cncn1)c1ccc(F)cc1F` (centres unmarked) [Compound 1d, O-2-Bromobutyrylfluconazole], for which the “MIC A. niger ATCC 16404, SDB” value with A. niger ATCC 16404 is reported as “≧1,276 μg/mL”. Further, the “MIC C. neoformans ATCC 66031, SDB” value in the test with C. neoformans ATCC 66031 is recorded as >1,276 μg/mL. For the same molecule, in the test on C. albicans ATCC 14053 [2], the “MIC C. albicans ATCC 14053, RPMI” value was found to be 319 µg/mL (≈ 701 µM). For the same molecule, the “MIC C. albicans ATCC 14053, SDB” value against C. albicans ATCC 14053 [1] amounted to 636 µg/mL (≈ 1400 µM).

Regarding `CC(=O)OC(Cn1cncn1)(Cn1cncn1)c1ccc(F)cc1F` [Compound 1a, O-Acetylfluconazole], the “MIC A. niger ATCC 16404, SDB” value with A. niger ATCC 16404 is “≧1,420 μg/mL”. For the same molecule, the “MIC C. neoformans ATCC 66031, SDB” value against C. neoformans ATCC 66031 is reported as >1,420 μg/mL. Also, in the test on C. albicans ATCC 14053 [2], the “MIC C. albicans ATCC 14053, RPMI” value was >1,420 μg/mL. Further, the “MIC C. albicans ATCC 14053, SDB” value in the test on C. albicans ATCC 14053 [1] was 1,420 μg/mL.

In the case of `CC(=O)OC[C@H]1O[C@@H](OP(=O)(OCCC#N)OC(Cn2cncn2)(Cn2cncn2)c2ccc(F)cc2F)[C@H](OC(C)=O)[C@@H](OC(C)=O)[C@@H]1OC(C)=O` (stereo partly drawn) [Compound 4a, 2-Cyanoethyl-[1-(β-D-2,3,4,6-glucosyltetraacetate)]fluconazole phosphate], in the test with A. niger ATCC 16404, the “MIC A. niger ATCC 16404, SDB” value is 1,999 μg/mL. In the test on C. neoformans ATCC 66031, the “MIC C. neoformans ATCC 66031, SDB” value is 551 µg/mL. The “MIC C. albicans ATCC 14053, SDB” value in the test with C. albicans ATCC 14053 [1] is 1,999 μg/mL.

For `OC(Cn1cncn1)(Cn1cncn1)c1ccc(F)cc1F` [FLC, 1,3-bis(1H-1,2,4-triazol-1-yl)-2-(2,4-difluorophenyl)-propan-2-ol, reference compound], the MIC is above 580 µg/mL against A. niger ATCC 16404, 2.4 µg/mL (≈ 7.84 µM) in the test with C. neoformans ATCC 66031, 2.3 µg/mL (≈ 7.51 µM) in the test with C. albicans ATCC 14053 [2] and at least 4440 µg/mL with C. albicans ATCC 14053 [1].

With `CCCCCCCCCCCCCC(=O)OC(Cn1cncn1)(Cn1cncn1)c1ccc(F)cc1F` [Compound 1b, O-Tetradecanoylfluconazole], the “MIC A. niger ATCC 16404, SDB” value against A. niger ATCC 16404 was “≧718 μg/mL”. Besides, in the test on C. neoformans ATCC 66031, the “MIC C. neoformans ATCC 66031, SDB” value was found to be 718 µg/mL (≈ 1390 µM). In addition, the “MIC C. albicans ATCC 14053, RPMI” value with C. albicans ATCC 14053 [2] worked out at 718 µg/mL (≈ 1390 µM). In addition, the “MIC C. albicans ATCC 14053, SDB” value in the test with C. albicans ATCC 14053 [1] was 718 µg/mL (≈ 1390 µM).

On to `CC(=O)N[C@H]1[C@H](OP(=O)(OCCC#N)OC(Cn2cncn2)(Cn2cncn2)c2ccc(F)cc2F)O[C@H](COC(C)=O)[C@@H](OC(C)=O)[C@@H]1OC(C)=O` (stereo partly drawn) [Compound 4b, 2-Cyanoethyl-[1-(2-acetamido-2-deoxy-3,4,6-tri-O-acetyl-β-D-glucopyranosidyl)]fluconazole phosphate], for which, in the test on A. niger ATCC 16404, the “MIC A. niger ATCC 16404, SDB” value is on record as 1,699 μg/mL. Moreover, in the test on C. neoformans ATCC 66031, the “MIC C. neoformans ATCC 66031, SDB” value worked out at 306 µg/mL. The “MIC C. albicans ATCC 14053, SDB” value against C. albicans ATCC 14053 [1] was >3,399 μg/mL.
